From the supplement of paper PMC10307832

Experiments:
Assay in all cases: relative viability (nuclei count vs DMSO), 5 days (fraction); higher = more cells survive
Bortezomib = compound: CC(C)C[C@H](NC(=O)[C@H](Cc1ccccc1)NC(=O)c1cnccn1)B(O)O [Bortezomib]
In short: (§1)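 Lung cancer cell lines were seeded into 1536-well plates, kept overnight at 37 °C and pinned with five library-drug doses (not always all listed) spaced by √10. After 5 days, nuclei were Hoechst-stained, imaged at 4× and counted with MetaXpress. Viability is treated-well nuclei over vehicle-well nuclei, taken as a median across plates. Plates needed control CV below 25% and at least one doubling.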

[1] = compound: CC1=CC(=NN1)NC2=CC(=NC(=N2)/C=C/C3=CC=CC=C3)N4CCN(CC4)C
In short: as §1

Obatoclax = compound: COC1=CC(c2cc3ccccc3[nH]2)=N/C1=C\c1[nH]c(C)cc1C [Obatoclax]
In short: as §1

| Cell Line | relative viability (Bortezomib; 0.0002 µM) | relative viability (Bortezomib; 0.000632 µM) | relative viability (Bortezomib; 0.002 µM) | relative viability (Bortezomib; 0.006325 µM) | relative viability (Bortezomib; 0.02 µM) | relative viability ([1]; 0.08 µM) | relative viability ([1]; 0.253 µM) | relative viability ([1]; 0.8 µM) | relative viability ([1]; 2.53 µM) | relative viability ([1]; 8 µM) | relative viability (Obatoclax; 0.01 µM) | relative viability (Obatoclax; 0.03162 µM) | relative viability (Obatoclax; 0.1 µM) | relative viability (Obatoclax; 0.3162 µM) | relative viability (Obatoclax; 1 µM) | relative viability (Bortezomib; 0.002 µM, anchor plate) |
| --- | --- | --- | --- | --- | --- | --- | --- | --- | --- | --- | --- | --- | --- | --- | --- | --- |
| NCI-H358 | 0.904 | 0.675 | 0.874 | 0.131 | 0.162 | 0.847 | 0.92 | 0.787 | 0.203 | 0.11 | 0.923 | 0.911 | 0.833 | 0.623 | 0.319 |  |
| NCI-H441 | 0.936 | 0.964 | 0.575 | 0.132 | 0.139 | 1.01 | 1.01 | 0.931 | 0.249 | 0.143 | 1.06 | 0.91 | 0.99 | 0.705 | 0.463 | 0.555 |
| NCI-H460 | 0.971 | 0.97 | 1.03 | 0.542 | 0.0702 | 1.01 | 1.03 | 1.01 | 0.597 | 0.0321 | 1 | 0.936 | 0.882 | 0.746 | 0.56 | 1.09 |
| NCI-H520 | 1.08 | 0.956 | 0.654 | 0.172 | 0.169 | 0.975 | 1.04 | 0.871 | 0.261 | 0.126 | 0.993 | 0.791 | 1.07 | 0.976 | 0.774 | 0.622 |
| NCI-H522 | 0.947 | 0.745 | 1.02 | 0.638 | 0.415 | 0.917 | 0.89 | 0.962 | 0.554 | 0.444 | 0.951 | 0.894 | 0.861 | 0.876 | 0.904 |  |
| NCI-H596 | 0.918 | 0.894 | 0.718 | 0.241 | 0.211 | 1 | 0.998 | 0.879 | 0.614 | 0.256 | 1.01 | 0.858 | 0.843 | 0.691 | 0.584 | 1.05 |
| NCI-H647 | 0.865 | 0.812 | 0.55 | 0.0435 | 0.0339 | 0.868 | 1.05 | 0.935 | 0.14 | 0.056 | 0.987 | 0.894 | 0.68 | 0.711 | 0.303 | 0.962 |
| NCI-H661 | 0.952 | 0.99 | 0.989 | 0.719 | 0.228 | 0.986 | 0.958 | 1.03 | 0.708 | 0.356 | 0.96 | 0.962 | 1.02 | 0.883 | 0.842 | 0.807 |
| NCI-H727 | 0.919 | 1.06 | 0.897 | 0.647 | 0.171 | 0.835 | 0.688 | 0.924 | 0.441 | 0.374 | 1.09 | 0.88 | 1.14 | 0.972 | 0.658 | 0.936 |
| NCI-H838 | 0.952 | 0.955 | 0.974 | 0.253 | 0.161 | 0.963 | 1.03 | 0.846 | 0.214 | 0.133 | 0.995 | 0.945 | 0.78 | 0.904 | 0.65 | 0.858 |
| NCI-H1299 | 0.992 | 0.955 | 1.03 | 0.507 | 0.167 | 1.04 | 1.02 | 1.03 | 0.719 | 0.328 | 0.989 | 1.03 | 0.948 | 1.01 | 0.9 | 1 |
